Test results as given in patent US10173991B2, “Sulfone amide linked benzothiazole inhibitors of endothelial lipase” (BRISTOL-MYERS SQUIBB COMPANY, priority 2014, dated 2019).

molecular target: Endothelial lipase (EL) (Homo sapiens (Human), UniProt Q9Y5X9); experiment: Endothelial lipase (EL) enzymatic assay with fluorescent substrate A10070 in DMPG vesicles; format: biochemical; settings: not given
In short: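 Substrate A10070 sits in sonicated DMPG vesicles at 0.11 mole fraction. Lipase and compound preincubated 30 min, 37° C, in HEPES pH 8.0 buffer with CaCl2.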

Endothelial lipase (EL), sequence (Q9Y5X9 21-500): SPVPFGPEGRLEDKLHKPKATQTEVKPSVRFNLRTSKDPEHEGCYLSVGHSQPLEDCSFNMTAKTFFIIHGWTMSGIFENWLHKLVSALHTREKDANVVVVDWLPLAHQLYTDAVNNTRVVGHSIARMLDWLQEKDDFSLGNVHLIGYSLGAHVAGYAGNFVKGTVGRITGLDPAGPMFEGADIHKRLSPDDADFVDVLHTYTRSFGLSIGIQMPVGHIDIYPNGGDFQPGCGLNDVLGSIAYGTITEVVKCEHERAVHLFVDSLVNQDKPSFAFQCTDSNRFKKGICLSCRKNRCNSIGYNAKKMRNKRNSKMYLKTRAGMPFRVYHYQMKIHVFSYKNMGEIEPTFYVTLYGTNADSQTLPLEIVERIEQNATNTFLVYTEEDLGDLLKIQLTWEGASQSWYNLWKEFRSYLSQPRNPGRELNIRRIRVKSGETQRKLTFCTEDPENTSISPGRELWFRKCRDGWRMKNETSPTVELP

Row | Compound | IC50
1 | CC(C)(O)CNC(=O)c1ccc(-c2ccc3nc(C(C(=O)NCC(=O)NC4CC4)S(C)(=O)=O)sc3c2)cc1 (stereo not shown) [Example 567, 4-[2-({[(cyclopropyl-carbamoyl)methyl]carbamoyl} (methanesulfonyl)methyl)-1,3-benzothiazol-6-yl]-N-(2-hydroxy-2-methylpropyl) benzamide] | 4 nM
2 | COCCN(C)C(=O)c1ccc(-c2ccc3nc(C(C(=O)NCC(=O)NC4CC4)S(=O)(=O)CCOC)sc3c2)cc1F (stereo not shown) [Example 568, 4-[2-({[(cyclopropyl-carbamoyl)methyl]carbamoyl}(2-methoxyethane-sulfonyl)methyl)-1,3-benzothiazol-6-yl]-2-fluoro-N-(2-methoxyethyl)-N-methylbenzamide] | 9 nM
3 | COCCS(=O)(=O)C(C(=O)NCC(=O)NC1CC1)c1nc2ccc(-c3ccc(C(=O)N4C[C@@H](C)O[C@@H](C)C4)cc3)cc2s1 (stereo partly drawn) [Example 569, N-[(cyclopropyl-carbamoyl)methyl]-2-(6-{4-[(2R,6S)-2,6-dimethyl-morpholine-4-carbonyl]phenyl}-1,3-benzothiazol-2-yl)-2-(2-methoxyethane-sulfonyl)acetamide] | 20 nM
4 | C[C@@H]1CN(C(=O)c2ccc(-c3ccc4nc(C(C(=O)NCC(=O)NC5CC5)S(C)(=O)=O)sc4c3)cc2)C[C@H](C)O1 (stereo partly drawn) [Example 570, N-[(cyclopropyl-carbamoyl)methyl]-2-(6-{4-[(2R,6S)-2,6-dimethyl-morpholine-4-carbonyl]phenyl}-1,3-benzothiazol-2-yl)-2-methanesulfonyl-acetamide] | 4 nM
5 | COC(C)(C)CNC(=O)c1ccc(-c2ccc3nc(C(C(=O)NCC(=O)NC4CC4)S(C)(=O)=O)sc3c2)cc1 (stereo not shown) [Example 571, 4-[2-({[(cyclopropyl-carbamoyl)methyl]carbamoyl} (methanesulfonyl)methyl)-1,3-benzothiazol-6-yl]-N-(2-methoxy-2-methylpropyl) benzamide] | 12 nM
6 | COCCS(=O)(=O)C(C(=O)NCC(=O)NC1CC1)c1nc2cc(F)c(-c3ccc(C(=O)NCCc4ccccc4)cc3)cc2s1 (stereo not shown) [Example 573, 4-[2-({[(cyclopropyl-carbamoyl)methyl]carbamoyl}(2-methoxyethane-sulfonyl)methyl)-5-fluoro-1,3-benzothiazol-6-yl]-N-(2-phenylethyl) benzamide] | 3 nM
7 | CS(=O)(=O)C(C(=O)NCC(=O)NC1CC1)c1nc2cc(F)c(-c3ccc(NC(=O)CCc4ccccc4)cc3)cc2s1 (stereo not shown) [Example 576, N-{4-[2-({[(cyclopropyl-carbamoyl)methyl]carbamoyl} (methanesulfonyl)methyl)-5-fluoro-1,3-benzothiazol-6-yl]phenyl}-3-phenyl-propanamide] | 1 nM
8 | COCCS(=O)(=O)C(C(=O)NCC(=O)NC1CC1)c1nc2cc(F)c(-c3ccc(NC(=O)CCc4ccccc4)cc3)cc2s1 (stereo not shown) [Example 577, N-{4-[2-({[(cyclopropyl-carbamoyl)methyl]carbamoyl}(2-methoxyethane-sulfonyl)methyl)-5-fluoro-1,3-benzothiazol-6-yl]phenyl}-3-phenyl-propanamide] | 1 nM
9 | CC(C)S(=O)(=O)C(C(=O)NCC(=O)NC1CC1)c1nc2cc(F)c(-c3ccc(NC(=O)CCc4ccccc4)cc3)cc2s1 (stereo not shown) [Example 578, N-{4-[2-({[(cyclopropyl-carbamoyl)methyl]carbamoyl} (propane-2-sulfonyl)methyl)-5-fluoro-1,3-benzothiazol-6-yl]phenyl}-3-phenyl-propanamide] | 4 nM
10 | CS(=O)(=O)C(C(=O)NCC(=O)NC1CC1)c1nc2ccc(-c3ccc(-n4ccnc4)cc3)cc2s1 (stereo not shown) [Example 580, N-[(cyclopropyl-carbamoyl)methyl]-2-{6-[4-(1H-imidazol-1-yl)phenyl]-1,3-benzothiazol-2-yl}-2-methanesulfonyl-acetamide] | 12 nM
11 | COCCS(=O)(=O)C(C(=O)NCC(=O)NC1CC1)c1nc2cc(F)c(-c3ccc(-n4ccnc4)cc3)cc2s1 (stereo not shown) [Example 581, N-[(cyclopropyl-carbamoyl)methyl]-2-{5-fluoro-6-[4-(1H-imidazol-1-yl)phenyl]-1,3-benzothiazol-2-yl}-2-(2-methoxyethane-sulfonyl)acetamide] | 36 nM
12 | CS(=O)(=O)C(C(=O)NCC(=O)NC1CC1)c1nc2ccc(-c3ccc(=O)n(-c4ccccc4)c3)cc2s1 (stereo not shown) [Example 583, N-[(cyclopropyl-carbamoyl)methyl]-2-methanesulfonyl-2-[6-(6-oxo-1-phenyl-1,6-dihydropyridin-3-yl)-1,3-benzothiazol-2-yl]acetamide] | 20 nM
13 | O=C(CNC(=O)C(c1nc2cc(F)c(-c3cnc(-n4cccn4)nc3)cc2s1)S(=O)(=O)CCC(F)(F)F)NC1CC1 (stereo not shown) [Example 584, N-[(cyclopropyl-carbamoyl)methyl]-2-{5-fluoro-6-[2-(1H-pyrazol-1-yl)pyrimidin-5-yl]-1,3-benzothiazol-2-yl}-2-(3,3,3-trifluoropropane-sulfonyl)acetamide] | 64 nM
14 | COCCS(=O)(=O)C(C(=O)NCC(=O)NC1CC1)c1nc2cc(F)c(-c3ccc(-n4ncc(C#N)c4N)cc3)cc2s1 (stereo not shown) [Example 585, 2-{6-[4-(5-amino-4-cyano-1H-pyrazol-1-yl)phenyl]-5-fluoro-1,3-benzothiazol-2-yl}-N-[(cyclopropyl-carbamoyl)methyl]-2-(2-methoxyethane-sulfonyl)acetamide] | 1 nM
15 | COCCS(=O)(=O)C(C(=O)NCC(=O)NC1CC1)c1nc2cc(F)c(-c3ccc(-n4ncc(C(N)=O)c4N)cc3)cc2s1 (stereo not shown) [Example 586, 5-amino-1-{4-[2-({[(cyclopropyl-carbamoyl)methyl]carbamoyl}(2-methoxyethane-sulfonyl)methyl)-5-fluoro-1,3-benzothiazol-6-yl]phenyl}-1H-pyrazole-4-carboxamide] | 1 nM
16 | Cc1nn(-c2ccc(-c3cc4sc(C(C(=O)NCC(=O)NC5CC5)S(=O)(=O)CCC(F)(F)F)nc4cc3F)cc2)c(N)c1C#N (stereo not shown) [Example 587, 2-{6-[4-(5-amino-4-cyano-3-methyl-1H-pyrazol-1-yl)phenyl]-5-fluoro-1,3-benzothiazol-2-yl}-N-[(cyclopropyl-carbamoyl)methyl]-2-(3,3,3-trifluoropropane-sulfonyl)acetamide] | 3 nM
17 | O=C(CNC(=O)C(c1nc2cc(F)c(-c3ccc(-n4nc(C(F)(F)F)cc4C(=O)O)cc3)cc2s1)S(=O)(=O)CCC(F)(F)F)NC1CC1 (stereo not shown) [Example 588, 1-{4-[2-({[(cyclopropyl-carbamoyl)methyl]carbamoyl}(3,3,3-trifluoropropane-sulfonyl)methyl)-5-fluoro-1,3-benzothiazol-6-yl]phenyl}-3-(trifluoromethyl)-1H-pyrazole-5-carboxylic acid] | 6 nM
18 | O=C(CNC(=O)C(c1nc2cc(F)c(-c3ccc4c(c3)CCCN4C(=O)Cc3c(F)cccc3F)cc2s1)S(=O)(=O)CCC(F)(F)F)NC1CC1 (stereo not shown) [Example 590, N-[(cyclopropyl-carbamoyl)methyl]-2-(6-{1-[2-(2,6-difluorophenyl)acetyl]-1,2,3,4-tetrahydroquinolin-6-yl}-5-fluoro-1,3-benzothiazol-2-yl)-2-(3,3,3-trifluoropropane-sulfonyl)acetamide] | 8 nM
19 | O=C(CNC(=O)C(c1nc2cc(F)c(-c3ccc(=O)n(Cc4ccccc4)c3)cc2s1)S(=O)(=O)CCC(F)(F)F)NC1CC1 (stereo not shown) [Example 592, 2-[6-(1-benzyl-6-oxo-1,6-dihydropyridin-3-yl)-5-fluoro-1,3-benzothiazol-2-yl]-N-[(cyclopropyl-carbamoyl)methyl]-2-(3,3,3-trifluoropropane-sulfonyl)acetamide] | 5 nM
20 | COCCS(=O)(=O)C(C(=O)NCC(=O)NC1CC1)c1nc2cc(F)c(-c3ccc(-c4nnn(C)n4)cc3)cc2s1 (stereo not shown) [Example 593, N-[(cyclopropyl-carbamoyl)methyl]-2-{5-fluoro-6-[4-(2-methyl-2H-1,2,3,4-tetrazol-5-yl)phenyl]-1,3-benzothiazol-2-yl}-2-(2-methoxyethane-sulfonyl)acetamide] | 9 nM
21 | COCCS(=O)(=O)C(C(=O)NCC(=O)NC1CC1)c1nc2cc(F)c(-c3ccc(-c4nnnn4C)cc3)cc2s1 (stereo not shown) [Example 594, N-[(cyclopropyl-carbamoyl)methyl]-2-{5-fluoro-6-[4-(1-methyl-1H-1,2,3,4-tetrazol-5-yl)phenyl]-1,3-benzothiazol-2-yl}-2-(2-methoxyethane-sulfonyl)acetamide] | 67 nM

same assay, conditions: EL from conditioned media of HT-1080 cells; 30 min preincubation at 37° C.

Row | Compound | IC50
22 | O=C(CNC(=O)C(c1nc2cc(F)c(-c3ccc(C(=O)NCCc4ccccc4)cc3)cc2s1)S(=O)(=O)CCC(F)(F)F)NC1CC1 (stereo not shown) [Example 572, 4-[2-({[(Cyclopropylcarbamoyl)methyl]carbamoyl}(3,3,3-trifluoropropanesulfonyl)methyl)-5-fluoro-1,3-benzothiazol-6-yl]-N-(2-phenylethyl)benzamide] | 2.8 nM
23 | O=C(CCc1ccccc1)Nc1ccc(-c2cc3sc(C(C(=O)NCC(=O)NC4CC4)S(=O)(=O)CCC(F)(F)F)nc3cc2F)cc1 (stereo not shown) [Example 575, N-{4-[2-({[(Cyclopropylcarbamoyl)methyl]carbamoyl}(3,3,3-trifluoropropanesulfonyl)methyl)-5-fluoro-1,3-benzothiazol-6-yl]phenyl}-3-phenylpropanamide] | 0.9 nM
24 | CS(=O)(=O)C(C(=O)NCC(=O)NC1CC1)c1nc2cc(F)c(-c3ccc(-n4ccnc4)cc3)cc2s1 (stereo not shown) [Example 579, N-[(Cyclopropylcarbamoyl)methyl]-2-{5-fluoro-6-[4-(1H-imidazol-1-yl)phenyl]-1,3-benzothiazol-2-yl}-2-methanesulfonylacetamide] | 6 nM
25 | O=C(CNC(=O)C(c1nc2cc(F)c(-c3cccn(Cc4ccccc4)c3=O)cc2s1)S(=O)(=O)CCC(F)(F)F)NC1CC1 (stereo not shown) [Example 591, 2-[6-(1-Benzyl-2-oxo-1,2-dihydropyridin-3-yl)-5-fluoro-1,3-benzothiazol-2-yl]-N-[(cyclopropylcarbamoyl)methyl]-2-(3,3,3-trifluoropropanesulfonyl)acetamide] | 268 nM
